One data set deals with HL-60. Nature of the data set: Cytotoxicity against human HL60 cells after 48 hrs by MTT assay. Type of data set: functional, cell-based. To be noted: HL-60, 48 h.
For a further data set, the system named is U-937. Nature of the data set: Cytotoxicity against human U937 cells after 48 hrs by MTT assay. The class given is functional, cell-based. As to conditions: U-937, 48 h. A general note: Tetrazolium assays rely on reduction of a dye to a coloured formazan, in cell work by metabolically active cells.
A short description of data set [1]: Cytotoxicity against human HT29-AK cells after 48 hrs by MTT assay. Type of data set: functional, cell-based.
The next data set relates to COLO 205. The data set can be described thus: Cytotoxicity against human COLO205 cells after 48 hrs by MTT assay. The class given is functional, cell-based. As to conditions: COLO 205, 48 h.
Data set [2] has as its system U2OS. Nature of the data set: Cytotoxicity against human U2OS cells after 48 hrs by MTT assay. Type of data set: functional, cell-based.
In a further data set the test system is MCF7. The data set can be described thus: Cytotoxicity against human MCF7 cells after 48 hrs by MTT assay. The class given is functional, cell-based. To be noted: MCF7, 48 h.
The next data set relates to MDA-MB-231. The data set can be described thus: Cytotoxicity against human MDA-MB-231 cells after 48 hrs by MTT assay. The class given is functional, cell-based. To be noted: MDA-MB-231, 48 h.
In data set [3] the test system is U2OS. The data set can be described thus: Cytotoxicity against human U2OS cells assessed as growth inhibition after 48 hrs by MTT assay relative to control. The class given is functional, cell-based.
Data set [4] can be described thus: Cytotoxicity against human FOB cells assessed as reduction in cell number after 48 hrs by MTT assay relative to control. Type of data set: cell-based.
In data set [5] the test system is U2OS. Nature of the data set: Induction of apoptosis in human U2OS cells assessed as cell rounding at 30 uM after 48 hrs by phase-contrast microscopic analysis. Type of data set: functional, cell-based.
Data set [6] relates to U2OS. The data set can be described thus: Induction of DNA damage in human U2OS cells by comet assay. Type of data set: functional, cell-based.
Data set [7] relates to U2OS. Nature of the data set: Induction of apoptosis in human U2OS cells after 48 hrs by MTT assay in presence of ROS scavenger NAC. The class given is functional, cell-based.
Data set [8] can be described thus: Induction of death receptor signaling-mediated apoptosis in human U2OS cells assessed as increase in Fas expression at 30 uM after 12 hrs using FasL-FITC mAb by flow cytometry (Rvb= 2.01+/-0.74 %). The class given is cell-based. For orientation: In flow cytometry, cells or beads pass a laser one at a time.
A short description of data set [9]: Induction of death receptor signaling-mediated apoptosis in human U2OS cells assessed as increase in production of reactive oxygen species at 30 uM after 2 to 12 hrs by flow cytometry relative to control. Type of data set: cell-based. To be noted: TDE = time-dependent effect.
Data set [10] in a line: Induction of death receptor signaling-mediated apoptosis in human U2OS cells assessed as decrease in mitochondrial membrane potential at 30 uM after 2 to 12 hrs relative to control. Type of data set: cell-based. As to conditions: TDE = time-dependent effect.
Data set [11] in a line: Induction of death receptor signaling-mediated apoptosis in human U2OS cells assessed as increase caspase-8 activity measuring release of pNA at 30 uM after 48 hrs by spectrophotometry. Type of data set: cell-based.
Data set [12] is described as follows: Induction of death receptor signaling-mediated apoptosis in human U2OS cells assessed as increase caspase-9 activity measuring release of pNA at 30 uM after 48 hrs by spectrophotometry. Type of data set: cell-based.
A short description of data set [13]: Induction of death receptor signaling-mediated apoptosis in human U2OS cells assessed as increase caspase-3 activity measuring release of pNA at 30 uM after 48 hrs by spectrophotometry. The class given is cell-based.
Data set [14] in a line: Induction of death receptor signaling-mediated apoptosis in human U2OS cells assessed as decrease in cell viability at 30 uM after 48 hrs by MTT assay in presence of caspase-3 inhibitor […]. Type of data set: cell-based.
Data set [15] in a line: Induction of death receptor signaling-mediated apoptosis in human U2OS cells assessed as decrease in cell viability at 30 uM after 48 hrs by MTT assay in presence of caspase-8 inhibitor Z-IETD-FMK. The class given is cell-based.
Data set [16] can be described thus: Induction of death receptor signaling-mediated apoptosis in human U2OS cells assessed decrease in as cell viability at 30 uM after 48 hrs by MTT assay in presence of caspase-9 inhibitor Z-LEHD-FMK. The class given is cell-based.
Data set [17] can be described thus: Induction of death receptor signaling-mediated apoptosis in human U2OS cells assessed as increase in Fas level at 30 uM after 12 to 48 hrs by Western blotting method. The class given is cell-based. (A western blot detects proteins with antibodies after separation by electrophoresis.)
Data set [18] is described as follows: Induction of death receptor signaling-mediated apoptosis in human U2OS cells assessed as decrease in pro-caspase3 level at 30 uM after 12 to 48 hrs by Western blotting method. Type of data set: cell-based.
The nature of data set [19]: Induction of death receptor signaling-mediated apoptosis in human U2OS cells assessed as increase in cytochrome c level at 30 uM after 12 to 48 hrs by Western blotting. Type of data set: cell-based.
The test system of data set [20] is U2OS. Nature of the data set: Induction of apoptosis in human U2OS cells assessed as cell shrinking at 30 uM after 48 hrs by phase-contrast microscopic analysis. Type of data set: functional, cell-based.
Data set [21] relates to U2OS. Nature of the data set: Induction of apoptosis in human U2OS cells after 48 hrs by MTT assay in presence of cyclosporine A. Type of data set: functional, cell-based.
Data set [22] has as its system U2OS. The data set can be described thus: Induction of apoptosis in human U2OS cells after 48 hrs by MTT assay in presence of anti-FasL monoclonal antibody. The class given is functional, cell-based.
The nature of data set [23]: Induction of death receptor signaling-mediated apoptosis in human U2OS cells assessed as increase in FasL expression at 30 uM after 12 hrs using FasL-FITC mAb by flow cytometry (Rvb= 1.23+/-0.11 %). The class given is cell-based.
A short description of data set [24]: Induction of death receptor signaling-mediated apoptosis in human U2OS cells assessed as increase in FasL level at 30 uM after 12 to 48 hrs by Western blotting method. The class given is cell-based.
Data set [25] in a line: Induction of death receptor signaling-mediated apoptosis in human U2OS cells assessed as increase in FADD level at 30 uM after 12 to 48 hrs by Western blotting method. Type of data set: cell-based.
A short description of data set [26]: Induction of death receptor signaling-mediated apoptosis in human U2OS cells assessed as increase in caspase-8 level at 30 uM after 12 to 48 hrs by Western blotting method. The class given is cell-based.
Data set [27] in a line: Induction of death receptor signaling-mediated apoptosis in human U2OS cells assessed as increase in Apaf-1 level at 30 uM after 12 to 48 hrs by Western blotting. The class given is cell-based.
The nature of data set [28]: Induction of death receptor signaling-mediated apoptosis in human U2OS cells assessed as increase in caspase-9 level at 30 uM after 12 to 48 hrs by Western blotting. Type of data set: cell-based.
The nature of data set [29]: Induction of death receptor signaling-mediated apoptosis in human U2OS cells assessed as increase in Endo-G level at 30 uM after 12 to 48 hrs by Western blotting. Type of data set: cell-based.
Data set [30] in a line: Induction of death receptor signaling-mediated apoptosis in human U2OS cells assessed as increase in AIF level at 30 uM after 12 to 48 hrs by Western blotting. The class given is cell-based.
Data set [31] can be described thus: Induction of death receptor signaling-mediated apoptosis in human U2OS cells assessed as increase in Bax level at 30 uM after 12 to 48 hrs by Western blotting. Type of data set: cell-based.
The nature of data set [32]: Induction of death receptor signaling-mediated apoptosis in human U2OS cells assessed as decrease in Bcl-2 level at 30 uM after 12 to 48 hrs by Western blotting. Type of data set: cell-based.
A short description of data set [33]: Induction of death receptor signaling-mediated apoptosis in human U2OS cells assessed as decrease in Bid level at 30 uM after 12 to 48 hrs by Western blotting. Type of data set: cell-based.

The term IC50 denotes the midpoint of a concentration-inhibition curve. Higher therefore signals a need for much substance.

Calls of active or inactive are those of the source. The rule behind the calls is not given here. Where only a bound is given, the exact number is not on record here.

Take `COc1cccc(Nc2nc(-c3cccc(F)c3)nc3ccc(F)cc23)c1`: the IC50 amounted to 35.5 µM with HL-60; 39.6 µM in the data set on U-937; 40.4 µM in data set [1]; 44.7 µM in the data set with COLO 205; 30.3 µM in the data set on U2OS [2]; 46.3 µM in the data set on MCF7. Also, in the data set with MDA-MB-231, 47.1 µM corresponded to half-maximal inhibition (IC50). Moreover, the “growth inhibition (GI)” value in the data set on U2OS [3] is “Dose-dependent effect”. For the same compound, the Activity entry in data set [4] is “Non-toxic”; in the data set on U2OS [6] it was “Dose-dependent effect”; in data set [8], 76.2%; in [9] it was “tde”; in data set [10], “tde”; in [23] it was 76.2%. Also, the outcome (in the data set on U2OS [5]; in data set [11]; in data set [12]; in [13]; in [17]; in [18]) was Active. Besides, the result (in [19]; in the data set on U2OS [20]; in [24]; in data set [25]; in data set [26]; in data set [27]) was Active. In addition, the outcome in [28], in data set [29], in data set [30], in data set [31], in data set [32] and in data set [33] was Active. Besides, the outcome (in the data set with U2OS [7]; in data set [14]; in [15]; in data set [16]; in the data set with U2OS [21]; in the data set on U2OS [22]) was inactive.
On to `Oc1cccc(Nc2nc(-c3cccc(F)c3)nc3ccc(F)cc23)c1`, for which the IC50 is more than 50 µM in the data set on HL-60; more than 50 µM in the data set with U-937; more than 50 µM in data set [1]; more than 50 µM in the data set with COLO 205; 33.3 µM in the data set on U2OS [2]; more than 50 µM in the data set with MCF7. Also, the IC50 in the data set on MDA-MB-231 is more than 50 µM.
With `Fc1ccc(Nc2nc(-c3cccc(F)c3)nc3ccc(F)cc23)cc1`, the IC50 (with HL-60; with U-937; in [1]; with COLO 205; in the data set with U2OS [2]; with MCF7) was more than 50 µM in each case. In the data set on MDA-MB-231, this compound had an IC50 of more than 50 µM.

The record behind these values is ChEMBL document CHEMBL1817546, “The synthesized novel fluorinated compound (LJJ-10) induces death receptor- and mitochondria-dependent apoptotic cell death in the human osteogenic sarcoma U-2 OS cells” (Eur J Med Chem, 2011).
